Usually inhibition stands for the drop in the measured response relative to a control, in per cent. In general, Inhibition refers to the relative decrease from the control value, in per cent.

The values that follow come from ChEMBL document CHEMBL1151540, “1-Naphthylmethylphosphonic acid derivatives as osteoclastic acid phosphatase inhibitors” (Bioorg Med Chem Lett, 1995).

The species entered for test [1] is Mus musculus. Briefly: Tested for percentage inhibition of PTH stimulated bone resorption in neonatal mouse calvaria placed in culture, at 10 uM concentration. The format is functional.
The species entered for test [2] is Mus musculus. In words: Tested for percentage inhibition of PTH stimulated bone resorption in neonatal mouse calvaria placed in culture, at 1 uM concentration. The format is functional.
For test [3], the species on record is Mus musculus. Briefly: Compound was evaluated for thymidine incorporation at 100 uM concentration using [H3 thymidine] as radioligand. The format is functional.
For test [4], the species on record is Mus musculus. In words: Compound was evaluated for thymidine incorporation at 1 uM concentration using [H3 thymidine] as radioligand. The format is functional.
The species named for test [5] is Mus musculus. Briefly: Tested for percentage inhibition of PTH stimulated bone resorption in neonatal mouse calvaria placed in culture, at 100 uM concentration. In kind it is functional.
The species named for test [6] is Mus musculus. In words: Compound was evaluated for thymidine incorporation at 10 uM concentration using [H3 thymidine] as radioligand. The format is functional.
For test [7], the target named is Tartrate-resistant acid phosphatase type 5 (Homo sapiens) (UniProt P13686). In words: Tested for inhibition of human Osteoclastic acid phosphatase (OAP), purified from the spleen of a patient with hairy cell leukemia at 100 uM.
Chain of Tartrate-resistant acid phosphatase type 5 (Homo sapiens) (P13686 whole entry, looked up): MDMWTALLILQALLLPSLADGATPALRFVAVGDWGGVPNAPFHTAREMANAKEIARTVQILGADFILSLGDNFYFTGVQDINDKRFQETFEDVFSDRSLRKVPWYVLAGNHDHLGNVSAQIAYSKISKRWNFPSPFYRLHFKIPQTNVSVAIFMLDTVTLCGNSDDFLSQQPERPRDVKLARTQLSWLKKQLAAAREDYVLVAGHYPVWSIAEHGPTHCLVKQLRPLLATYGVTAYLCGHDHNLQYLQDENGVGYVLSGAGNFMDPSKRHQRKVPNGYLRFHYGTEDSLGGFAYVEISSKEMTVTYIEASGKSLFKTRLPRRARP
Test [8] is filed under the species Mus musculus. In words: Compound was tested for thymidine incorporation at 500 uM concentration using [H3 thymidine] as radioligand. In kind it is functional. On the technique in general: Incorporation of labelled thymidine or its analogues reports DNA synthesis.
Test [9] is filed under the species Mus musculus. In words: Compound was tested for the percentage inhibition of PTH stimulated bone resorption in neonatal mouse calvaria placed in culture, at 500 uM concentration. The format is functional.
Test [10] is filed under the species Mus musculus. Briefly: Compound was tested for the percentage inhibition of PTH stimulated bone resorption in neonatal mouse calvaria placed in culture, at 100 uM concentration. The format is functional.
For test [11], the species on record is Mus musculus. Briefly: Compound was tested for thymidine incorporation at 10 uM concentration. In kind it is functional.

Turning to ORTHOVANADATE, the values for the inhibition in the test filed under Mus musculus [1], in the test listed under Mus musculus [2] and in the test listed under Mus musculus [5] were 72.7%, 31.3% and 130%, respectively. Further, the Control turned out to be 0.4% in the test listed under Mus musculus [3], 127% in the test filed under Mus musculus [4] and 94% in the test filed under Mus musculus [6].

In the case of `O=P(O)(O)C(O)c1cccc2ccccc12` (centres undefined), in test [7], the inhibition turned out to be 10%.

On to `Cc1ccc2ccccc2c1C(CC1CCCCC1)P(=O)(O)O` (centres undefined), for which, in test [7], the inhibition amounted to 90%.

Regarding `O=[N+]([O-])c1ccc(CC(c2cccc3ccccc23)P(=O)(O)O)cc1` (centres undefined), the inhibition in [7] amounted to 80%.

Consider `O=P(O)(O)C(CC1CCCCC1)c1cccc2ccccc12` (centres undefined), for which, in [7], the inhibition was found to be 73%.

Take `O=P(O)(O)C(Cc1ccccc1)c1cccc2ccccc12` (centres undefined): the inhibition in test [7] worked out at 92%.

Regarding `O=P(O)(O)Cc1ccc2ccccc2c1`, the inhibition in test [7] is 4%.

Regarding `O=C(c1ccc2ccccc2c1)C(c1cccc2ccccc12)P(=O)(O)O` (centres undefined), in [7], the inhibition is 95%.

With `Cc1ccc(CC(c2cccc3ccccc23)P(=O)(O)O)cc1` (centres undefined), the inhibition in test [7] amounted to 75%.

In the case of `O=P(O)(O)C(Cc1ccc(Cl)cc1)(Cc1ccc(Cl)cc1)c1cccc2ccccc12`, the inhibition in [7] is 87%.

As for `COc1ccc(CC(c2cccc3ccccc23)P(=O)(O)O)cc1` (centres undefined), the inhibition in test [7] is 73%.

Take `O=P(O)(O)C(Cc1ccccc1)c1ccc2ccccc2c1` (centres undefined): in test [7], the inhibition is 19%.

`O=P(O)(O)C(Cc1ccc(Cl)cc1)c1cccc2ccccc12` (centres undefined) returned a Control in the test filed under Mus musculus [8] of 76%. In addition, the Inhibition in the test listed under Mus musculus [9] was 101.8%; in the test filed under Mus musculus [10], 31.9%. Also, in test [7], the inhibition worked out at 94%.

Turning to `Cc1ccc2ccccc2c1CP(=O)(O)O`, the inhibition in [7] was 20%.

With `O=P(O)(O)C(Cl)(Cl)P(=O)(O)O` [CLODRONIC ACID], in the test filed under Mus musculus [1], the Inhibition is given as 95.6%. Also, the Control in the test listed under Mus musculus [11] stood at 104%.

Regarding `O=P(O)(O)Cc1ccccc1`, the inhibition in [7] stood at 0%.

With `O=P(O)(O)C(Cc1ccccc1)c1ccccc1` (centres undefined), in [7], the inhibition is 15%.

`O=C(c1ccccc1)C(C(=O)c1ccccc1)(c1cccc2ccccc12)P(=O)(O)O`: the inhibition in test [7] amounted to 96%.

Consider `O=P(O)(O)C(Cc1ccc(-c2ccccc2)cc1)c1cccc2ccccc12` (centres undefined), for which the inhibition in test [7] was 100%.

Consider `O=P(O)(O)Cc1cccc2ccccc12`, for which, in test [7], the inhibition worked out at 64%.
